In patent US20160256449A1, “H3 RECEPTOR ANTAGONIST FOR USE IN THE TREATMENT OF ALZHEIMER'S DISEASE” (SANOFI, priority 2013, published 2016):

Legend:
[1] = tested on: patients with mild to moderate Alzheimer's disease; assay: clinical study, treatment emergent adverse events (TEAE); assay type: in vivo, human; conditions: for Patients with an TEAE / Patients with any treatment emergent serious adverse event / TEAE: Anxiety / TEAE: Cardiac disorders / TEAE: Depressive disorders / TEAE: Dermatitis / TEAE: Diarrhea / TEAE: Dyspepsia / TEAE: Gastrointestinal disorders / TEAE: Hiatus hernia / TEAE: Infections and infestations / TEAE: Muscle spasm / TEAE: Musculoskeletal and connective tissue disorders / TEAE: Other (Falls) / TEAE: Psychiatric disorders / TEAE: Rashes / TEAE: Skin and subcutaneous tissue disorders / TEAE: Sleep disorders and Disturbance / TEAE: Vascular disorders: with donepezil
Experimental: A randomized, double-blind, parallel-group, placebo-controlled clinical trial was performed to study the effect on cognitive performance, safety, and tolerability of 2-(cyclohexylmethyl)-N-{2-[(2S)-1-methylpyrrolidin-2-yl]ethyl}-1,2,3,4-tetrahydroisoquinoline-7-sulfonamide difumarate monohydrate as adjunct treatment to donepezil.
More specifically, patients with mild to moderate Alzheimer's disease on stable donepezil therapy were randomized to receive doses of 0.5 mg, 2 mg, or 5 mg/day of 2-(cyclohexylmethyl)-N-{2-[(2S)-1-methylpyrrolidin-2-yl]ethyl}-1,2,3,4-tetrahydroisoquinoline-7-sulfonamide difumarate monohydrate or placebo for 24 weeks, with a 10 week follow-up period.
Patients were randomized to receive 0.5 mg, 2 mg, or 5 mg of 2-(cyclohexylmethyl)-N-{2-[(2S)-1-methylpyrrolidin-2-yl]ethyl}-1,2,3,4-tetrahydroisoquinoline-7-sulfonamide difumarate monohydrate (measured in base form), or matching placebo once a day, with donepezil (5 mg or 10 mg in the form the patient took prior to enrollment), for 24 weeks, with or without food.

scopolamine treated mice = assay: object recognition task in scopolamine-treated mice; assay type: in vivo
Source text: FIG. 2 illustrates the results of the effect of a co-treatment with 2-(cyclohexylmethyl)-N-{2-[(2S)-1-methylpyrrolidin-2-yl]ethyl}-1,2,3,4-tetrahydroisoquinoline-7-sulfonamide and donepezil on recognition memory deficit in scopolamine-treated mice using the object recognition task.
The results of this study are depicted in FIG. 2.

CN1CCC[C@H]1CCNS(=O)(=O)c1ccc2c(c1)CN(CC1CCCCC1)CC2 [API, 2-(cyclohexylmethyl)-N-{2-[(2S)-1-methylpyrrolidin-2-yl]ethyl}-1,2,3,4-tetrahydroisoquinoline-7-sulfonamide difumarate monohydrate]
Patients with an TEAE ([1]; 0.5 mg (N = 72)): 53 (73.6%) | Patients with any treatment emergent serious adverse event ([1]; 0.5 mg (N = 72)): 10 (13.9%) | TEAE: Anxiety ([1]; 0.5 mg (N = 72)): 3 (4.2%) | TEAE: Cardiac disorders ([1]; 0.5 mg (N = 72)): 5 (6.9%) | TEAE: Depressive disorders ([1]; 0.5 mg (N = 72)): 1 (1.4%) | TEAE: Dermatitis ([1]; 0.5 mg (N = 72)): 1 (1.4%) | TEAE: Diarrhea ([1]; 0.5 mg (N = 72)): 7 (9.7%) | TEAE: Dyspepsia ([1]; 0.5 mg (N = 72)): 1 (1.4%) | TEAE: Gastrointestinal disorders ([1]; 0.5 mg (N = 72)): 11 (15.3%) | TEAE: Hiatus hernia ([1]; 0.5 mg (N = 72)): 0% | TEAE: Infections and infestations ([1]; 0.5 mg (N = 72)): 20 (27.8%) | TEAE: Muscle spasm ([1]; 0.5 mg (N = 72)): 1 (1.4%) | TEAE: Musculoskeletal and connective tissue disorders ([1]; 0.5 mg (N = 72)): 5 (6.9%) | TEAE: Other (Falls) ([1]; 0.5 mg (N = 72)): 9 (12.5%) | TEAE: Psychiatric disorders ([1]; 0.5 mg (N = 72)): 21 (29.2%) | TEAE: Rashes ([1]; 0.5 mg (N = 72)): 1 (1.4%) | TEAE: Skin and subcutaneous tissue disorders ([1]; 0.5 mg (N = 72)): 7 (9.7%) | TEAE: Sleep disorders and Disturbance ([1]; 0.5 mg (N = 72)): 12 (16.7%) | TEAE: Vascular disorders ([1]; 0.5 mg (N = 72)): 2 (2.8%) | Patients with an TEAE ([1]; 2 mg (N = 72)): 54 (76.1%) | Patients with any treatment emergent serious adverse event ([1]; 2 mg (N = 72)): 10 (14.1%) | TEAE: Anxiety ([1]; 2 mg (N = 72)): 4 (5.6%) | TEAE: Cardiac disorders ([1]; 2 mg (N = 72)): 3 (4.2%) | TEAE: Depressive disorders ([1]; 2 mg (N = 72)): 2 (2.8%) | TEAE: Dermatitis ([1]; 2 mg (N = 72)): 3 (4.2%) | TEAE: Diarrhea ([1]; 2 mg (N = 72)): 7 (9.9%) | TEAE: Dyspepsia ([1]; 2 mg (N = 72)): 1 (1.4%) | TEAE: Gastrointestinal disorders ([1]; 2 mg (N = 72)): 18 (25.4%) | TEAE: Hiatus hernia ([1]; 2 mg (N = 72)): 0% | TEAE: Infections and infestations ([1]; 2 mg (N = 72)): 11 (15.5%) | TEAE: Muscle spasm ([1]; 2 mg (N = 72)): 2 (2.8%) | TEAE: Musculoskeletal and connective tissue disorders ([1]; 2 mg (N = 72)): 12 (16.9%) | TEAE: Other (Falls) ([1]; 2 mg (N = 72)): 7 (9.9%) | TEAE: Psychiatric disorders ([1]; 2 mg (N = 72)): 18 (25.4%) | TEAE: Rashes ([1]; 2 mg (N = 72)): 4 (5.6%) | TEAE: Skin and subcutaneous tissue disorders ([1]; 2 mg (N = 72)): 15 (21.1%) | TEAE: Sleep disorders and Disturbance ([1]; 2 mg (N = 72)): 11 (15.5%) | TEAE: Vascular disorders ([1]; 2 mg (N = 72)): 3 (4.3%) | Patients with an TEAE ([1]; 5 mg (N = 69)): 59 (85.5%) | Patients with any treatment emergent serious adverse event ([1]; 5 mg (N = 69)): 8 (11.6%) | TEAE: Anxiety ([1]; 5 mg (N = 69)): 4 (5.8%) | TEAE: Cardiac disorders ([1]; 5 mg (N = 69)): 5 (7.2%) | TEAE: Depressive disorders ([1]; 5 mg (N = 69)): 5 (7.2%) | TEAE: Dermatitis ([1]; 5 mg (N = 69)): 3 (4.3%) | TEAE: Diarrhea ([1]; 5 mg (N = 69)): 4 (5.8%) | TEAE: Dyspepsia ([1]; 5 mg (N = 69)): 3 (4.3%) | TEAE: Gastrointestinal disorders ([1]; 5 mg (N = 69)): 17 (24.6%) | TEAE: Hiatus hernia ([1]; 5 mg (N = 69)): 3 (4.3%) | TEAE: Infections and infestations ([1]; 5 mg (N = 69)): 16 (23.2%) | TEAE: Muscle spasm ([1]; 5 mg (N = 69)): 7 (10.6%) | TEAE: Musculoskeletal and connective tissue disorders ([1]; 5 mg (N = 69)): 16 (23.2%) | TEAE: Other (Falls) ([1]; 5 mg (N = 69)): 7 (10.1%) | TEAE: Psychiatric disorders ([1]; 5 mg (N = 69)): 27 (39.1%) | TEAE: Rashes ([1]; 5 mg (N = 69)): 1 (1.4%) | TEAE: Skin and subcutaneous tissue disorders ([1]; 5 mg (N = 69)): 5 (7.2%) | TEAE: Sleep disorders and Disturbance ([1]; 5 mg (N = 69)): 21 (30.4%) | TEAE: Vascular disorders ([1]; 5 mg (N = 69)): 3 (4.3%) | sleep disorders and disturbances, incidence among groups ([1]; 5 mg group): highest incidence | safety and tolerability ([1]; 0.5, 2, 5 mg/day with donepezil, 24 weeks): safe and well tolerated | vascular disorders, incidence over placebo ([1]; all treated groups): low incidence | activity of the amount given alone, episodic memory deficits (scopolamine treated mice; 0.3 mg/kg alone): inactive | episodic memory deficits, co-treatment (scopolamine treated mice; 0.3 mg/kg with donepezil hydrochloride 1 mg/kg): reversed episodic memory deficits
